The text below walks through data of publication PMC3823594, “Conformational Changes Underlying Pore Dilation in the Cytoplasmic Domain of Mammalian Inward Rectifier K^+ Channels” (PLoS ONE, 2013).

What is called Hill coefficient is the slope factor of the fitted curve. A word on the EC50: it is the concentration that produces a half-maximal response. Read a high EC50 as a less potent agent.

Holding throughout (assay): Two-electrode voltage clamp, ACh-dependent (m2R-dependent) K+ current activation
In one experiment the target is T1, Kir3.2 E236Q (Mus musculus, UniProt P48542, E236Q).
T1 sequence (P48542 19-425 E236Q): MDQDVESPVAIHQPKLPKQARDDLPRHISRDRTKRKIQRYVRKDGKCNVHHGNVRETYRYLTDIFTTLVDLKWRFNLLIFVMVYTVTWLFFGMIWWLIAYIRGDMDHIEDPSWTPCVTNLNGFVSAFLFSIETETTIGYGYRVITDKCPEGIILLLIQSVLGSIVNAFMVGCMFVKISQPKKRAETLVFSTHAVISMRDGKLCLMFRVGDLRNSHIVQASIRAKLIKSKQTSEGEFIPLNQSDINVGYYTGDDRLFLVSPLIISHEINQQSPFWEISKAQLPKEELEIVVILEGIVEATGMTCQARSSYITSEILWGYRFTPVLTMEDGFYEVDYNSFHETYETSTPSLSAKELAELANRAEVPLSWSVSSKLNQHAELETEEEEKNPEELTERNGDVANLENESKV
T1 sequence (P06199 1-466 partner): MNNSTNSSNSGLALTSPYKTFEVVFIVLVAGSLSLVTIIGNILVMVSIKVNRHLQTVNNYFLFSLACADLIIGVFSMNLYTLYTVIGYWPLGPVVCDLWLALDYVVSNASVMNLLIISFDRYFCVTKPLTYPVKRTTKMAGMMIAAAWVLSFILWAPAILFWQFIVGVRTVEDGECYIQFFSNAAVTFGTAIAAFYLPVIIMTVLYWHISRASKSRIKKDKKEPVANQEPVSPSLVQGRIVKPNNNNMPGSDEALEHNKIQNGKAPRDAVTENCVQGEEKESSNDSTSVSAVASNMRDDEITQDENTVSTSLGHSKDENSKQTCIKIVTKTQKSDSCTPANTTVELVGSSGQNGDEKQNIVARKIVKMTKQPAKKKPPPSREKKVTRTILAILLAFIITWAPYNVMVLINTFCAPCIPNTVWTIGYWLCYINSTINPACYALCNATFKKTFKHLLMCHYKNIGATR
In kind it is cell-based. The settings on record: Kir3.2 E236Q with porcine m2R in Xenopus oocytes; −120 mV; Hill equation fit. An excerpt: (§1) The mouse Kir3.2d isoform was subjected to functional analyses. The amino acid numbers correspond to the longest mouse Kir3.2 isoform. Point mutations were introduced using the QuikChange site-directed mutagenesis kit (Stratagene, La Jolla, CA), and the presence of the mutations was confirmed by direct DNA sequencing. The care of Xenopus laevis was in accordance with the guideline of the Institute of Experimental Animal Sciences, Osaka University. The protocol was approved by the Animal Experiment Committee of Osaka University. The frogs were deeply anesthetized by immersing in 0.2% tricaine methanesulfonate for 20 min at 18°C. A portion of an ovary lobe was surgically removed and incubated with collagenase to remove follicular cells. The oocytes were injected with the cRNAs of Kir3.2 and porcine m2-muscarinic receptor (m2R), and maintained in modified Barth’s solution at 18°C with daily solution changes. Electrophysiological studies were undertaken 48–72 h later at room temperature (20–25°C). Two-electrode voltage-clamp recordings from oocytes were performed using a GeneClamp 500B amplifier (Axon Instruments, Sunnyvale, CA). […] The bath solution contained 40 mM KCl, 50 mM NaCl, 3 mM MgCl2, 0.15 mM niflumic acid, and 5 mM HEPES-KOH (pH 7.4). The currents were recorded in the absence or presence of various concentrations of acetylcholine (ACh). Ba^2+ (3 mM) was added at the end of the recording to estimate the endogenous leak current. The data are expressed as mean values ± standard error of the mean. For the quantitative estimation of ACh-dependent current responses of the wild-type (WT) and mutant channels, the current amplitudes at the end of test pulses at each ACh concentration ([ACh]) were fitted using the following equation:
(§2) I=min+[(max−min)/(1+(EC50/[ACh])^nH)]
(§3) where I is the current amplitude measured at the [ACh], n H is the Hill coefficient, and EC50 is the concentration that induces 50% of the maximal response. […] The values of n H and EC50 were calculated using a non-linear least-squares best fit (SigmaPlot 9; Systat Software). Statistical analyses were performed by one-way ANOVA with post-hoc tests.

A further experiment has as its target T2, Kir3.2 M313G (Mus musculus, UniProt P48542, I313G).
T2 sequence (P48542 19-425 I313G): T1 sequence (P48542 19-425 E236Q) with Q218E, I295G
T2 sequence (P06199 1-466 partner): T1 sequence (P06199 1-466 partner)
It counts as cell-based. The settings on record: Kir3.2 M313G with porcine m2R in Xenopus oocytes; −120 mV; Hill equation fit.
Source text: as §1, §2, §3

Another experiment deals with T3, Kir3.2 E236N (Mus musculus, UniProt P48542, E236N).
T3 sequence (P48542 19-425 E236N): T1 sequence (P48542 19-425 E236Q) with Q218N
T3 sequence (P06199 1-466 partner): T1 sequence (P06199 1-466 partner)
It counts as cell-based. To be noted: Kir3.2 E236N with porcine m2R in Xenopus oocytes; −120 mV; Hill equation fit.
Source text: as §1, §2, §3

Another experiment relates to Kir3.2 M313D. It counts as cell-based, mouse. To be noted: Kir3.2 M313D with porcine m2R in Xenopus oocytes; −120 mV; Hill equation fit, min not zero.
Source text: as §1, §2, §3

The subject of a further experiment is Kir3.2 M313Q. In kind it is cell-based, mouse. The settings on record: Kir3.2 M313Q with porcine m2R in Xenopus oocytes; −120 mV; Hill equation fit.
Source text: as §1, §2, §3

Residue numbers refer to the chain shown, from its start.

In the case of `CC(=O)OCC[N+](C)(C)C` [ACh, acetylcholine], the Hill coefficient on Kir3.2 E236Q was found to be 0.75 ± 0.02; at Kir3.2 M313G, 0.98 ± 0.07; at Kir3.2 E236N it was 0.82 ± 0.08; with Kir3.2 M313D, 0.73 ± 0.06; in the experiment with Kir3.2 M313Q, 0.81 ± 0.04. Besides, the EC50 was 0.13 ± 0.01 µM in the experiment on Kir3.2 M313D and 0.05 ± 0.005 µM in the experiment with Kir3.2 M313Q.
